# What was measured:
# U251 cells = assay: XTT sensitization to TMZ by scL-p53; assay type: cell-based, human; details: XTT 144 h after TMZ addition
# Method: (§1) To assess the ability of scL delivered wtp53 to sensitize brain tumor cells to first-line chemotherapeutic agent TMZ, human brain tumor derived U87 and U251 cells were treated with TMZ alone, or the combination of TMZ plus scL-p53 (prepared as described in U.S. Pat. No. 7,780,882). As a control, cells were also treated with the combination of TMZ and the scL delivery system carrying the same vector used to construct the pSCMVp53 plasmid, but without the p53 insert (scL-vec). The cells were plated in a 96-well plate and treated 24 hours later with scL-p53 or scL-vec. 6 hours post-transfection, the TMZ was added in increasing concentrations. […] As these two cell lines are known to be sensitive to TMZ, it was not unexpected that there was some response to TMZ alone.
# U87 cells = assay: XTT sensitization to TMZ by scL-p53; assay type: cell-based, human; details: XTT 144 h after TMZ addition
# Method: as §1
# LN-18 cells = assay: XTT sensitization of TMZ resistant cells by scL-p53; assay type: cell-based, human; details: XTT 72 h after TMZ addition
# Method: (§2) However, as only a subset of brain tumor patients respond to TMZ it was more critical to assess the ability of scL-p53 to sensitize TMZ resistant tumors to this chemotherapeutic agent. Thus, to assess the ability of scL delivered wtp53 to sensitize TMZ resistant brain tumor cells to this first-line chemotherapeutic agent, human brain tumor derived LN-18 and T98G cells were treated with TMZ alone, or the combination of TMZ plus scL-p53 (FIG. 23). As a control, cells were also treated with the combination of TMZ and the scL delivery system carrying the same vector used to construct the pSCMVp53 plasmid, but without the p53 insert (scL-vec). The cells were plated in a 96-well plate and treated 24 hours later with scL-p53 or scL-vec. 24 hours post-transfection, the TMZ was added in increasing concentrations. […] As shown in FIG. 23 with LN-18 cells, after transfection with scL-p53 these TMZ resistant cells are now responding to even very low doses of TMZ. […] With the T98G cells (FIG. 23), although not as responsive as to TMZ as LN-18 after treatment with scL-p53, these highly resistant cells are also sensitized to the killing effects of this drug.
# T98G cells = assay: as above; assay type: cell-based, human; details: XTT 72 h after TMZ addition
# Method: as §2
# [1] = tested on: U87MG-Luc xenograft brain tumors; assay: Survival of mice with intracranial GBM tumors (Kaplan-Meier); assay type: in vivo, nude mice
# Method: U87MG-Luc xenograft brain tumors were induced in nude mice as described above. 10 days post-inoculation, tumor-bearing animals were i.v. tail vein injected with TMZ alone (25.0 mg/kg/injection), scL-p53 alone (30 ug DNA/mouse/injection) (prepared as described in U.S. Pat. No. 7,780,882) or TMZ in combination with scL-p53. As a control, one group received PBS (vehicle). All i.v. injections were administered 2×/week to a total of 10 injections. The animals were monitored 2-3 times/week and euthanized when moribund. The gray bar in FIG. 27 indicates the duration of treatment.
structure (smiles),measurement,setting,value
"Cn1nnc2c(C(N)=O)ncn2c1=O [TMZ, temozolomide]",sensitization/response to TMZ,U251 cells,some response
same,sensitization/response to TMZ,U87 cells,some response
same,dose of TMZ until which no significant cell death is observed,LN-18 cells,~1000 µM
same,IC50,T98G cells,~2000 µM
same,day by which all of the mice succumbed to their tumor,[1]; TMZ 25.0 mg/kg,~155 days
same,Median Survival,"[1]; TMZ 25.0 mg/kg, scL-p53 30 ug DNA/mouse, i.v. 2x/week, 10 injections",112 days
same,Survival Prolongation (%),[1]; ratio of the median survival of untreated GBM xenografts,348%

# Source: US11951167B2, “Targeted liposomes” (GEORGETOWN UNIVERSITY, priority 2012, dated 2024)
